# Legend:
# Parameters in all cases: scale not given here
# ABUTH Velvetleaf [1] = assay: Postemergence herbicidal evaluation, ABUTH; assay type: in vivo, Abutilon theophrasti, Medic.; details: postemergence spray, rated about two-three weeks after treatment
# In short: (§1)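 Plants are raised for roughly two weeks, then treated postemergence with compound dispersed in acetone/water (80/20) plus 1.0% seed oil adjuvant, at rates of about 0.006 kg to 0.400 kg per hectare. After greenhouse care, damage is scored two to three weeks later.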
# AMBEL Ragweed, Common [2] = assay: Postemergence herbicidal evaluation, AMBEL; assay type: in vivo, Ambrosia artemisifolia, L.; details: postemergence spray, rated about two-three weeks after treatment
# In short: as §1
# CASOB Sicklepod [3] = assay: Postemergence herbicidal evaluation, CASOB; assay type: in vivo, Cassia obtusifolia, L.; details: postemergence spray, rated about two-three weeks after treatment
# In short: as §1
# [4] = tested on: CHEAL Lambsquarters, Common; assay: Postemergence herbicidal evaluation, CHEAL; assay type: in vivo, Chenopodium album, L.; details: postemergence spray, rated about two-three weeks after treatment
# In short: as §1
# ECHOG Barnyardgrass [5] = assay: Postemergence herbicidal evaluation, ECHOG; assay type: in vivo, Echinochloa crus-galli, (L.) Beau; details: postemergence spray, rated about two-three weeks after treatment
# In short: as §1
# GALAP Galium [6] = assay: Postemergence herbicidal evaluation, GALAP; assay type: in vivo, Galium aparine; details: postemergence spray, rated about two-three weeks after treatment
# In short: as §1
# [7] = tested on: IPOHE Morningglory, Ivyleaf; assay: Postemergence herbicidal evaluation, IPOHE; assay type: in vivo, Ipomoea hederacea, (L.) Jacq.; details: postemergence spray, rated about two-three weeks after treatment
# In short: as §1
# SETVI Foxtail, Green [8] = assay: Postemergence herbicidal evaluation, SETVI; assay type: in vivo, Setaria viridis, (L.) Beau; details: postemergence spray, rated about two-three weeks after treatment
# In short: as §1
# GLXMAW Soybean, Williams [9] = assay: Postemergence herbicidal evaluation, GLXMAW; assay type: in vivo, Glycine max, (L.) Merr. cv Williams; details: postemergence spray, rated about two-three weeks after treatment
# In short: as §1
# [10] = tested on: TRZAWR Wheat, Winter, cv Riband; assay: Postemergence herbicidal evaluation, TRZAWR; assay type: in vivo, Triticum aestivum; details: postemergence spray, rated about two-three weeks after treatment
# In short: as §1
# ORYSAT Rice, Tebonnet [11] = assay: Postemergence herbicidal evaluation, ORYSAT; assay type: in vivo, Oryza sativa, (L.); details: postemergence spray, rated about two-three weeks after treatment
# In short: as §1
# ZEAMX Corn, Field [12] = assay: Postemergence herbicidal evaluation, ZEAMX; assay type: in vivo, Zea mays, L. (Sammel-Bezeichnung); details: postemergence spray, rated about two-three weeks after treatment
# In short: as §1
# ABUTH Velvetleaf [13] = assay: Preemergence herbicidal evaluation, ABUTH; assay type: in vivo, Abutilon theophrasti, Medic.; details: preemergence
# In short: (§2)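 Preemergence soil spray: aqueous acetone, ~0.013–0.800 kg/ha, applied right after sowing (seed/potting-soil mix over ~1 in soil). Greenhouse, routine watering. Scored 4–5 wk post-treatment on a rating scale.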
# AMBEL Ragweed, Common [14] = assay: Preemergence herbicidal evaluation, AMBEL; assay type: in vivo, Ambrosia artemisifolia, L.; details: preemergence
# In short: as §2
# CASOB Sicklepod [15] = assay: Preemergence herbicidal evaluation, CASOB; assay type: in vivo, Cassia obtusifolia, L.; details: preemergence
# In short: as §2
# [16] = tested on: CHEAL Lambsquarters, Common; assay: Preemergence herbicidal evaluation, CHEAL; assay type: in vivo, Chenopodium album, L.; details: preemergence
# In short: as §2
# ECHOG Barnyardgrass [17] = assay: Preemergence herbicidal evaluation, ECHOG; assay type: in vivo, Echinochloa crus-galli, (L.) Beau; details: preemergence
# In short: as §2
# GALAP Galium [18] = assay: Preemergence herbicidal evaluation, GALAP; assay type: in vivo, Galium aparine; details: preemergence
# In short: as §2
# [19] = tested on: IPOHE Morningglory, Ivyleaf; assay: Preemergence herbicidal evaluation, IPOHE; assay type: in vivo, Ipomoea hederacea, (L.) Jacq.; details: preemergence
# In short: as §2
# SETVI Foxtail, Green [20] = assay: Preemergence herbicidal evaluation, SETVI; assay type: in vivo, Setaria viridis, (L.) Beau; details: preemergence
# In short: as §2
# GLXMAW Soybean, Williams [21] = assay: Preemergence herbicidal evaluation, GLXMAW; assay type: in vivo, Glycine max, (L.) Merr. cv Williams; details: preemergence
# In short: as §2
# [22] = tested on: TRZAWR Wheat, Winter, cv Riband; assay: Preemergence herbicidal evaluation, TRZAWR; assay type: in vivo, Triticum aestivum; details: preemergence
# In short: as §2
# ORYSAT Rice, Tebonnet [23] = assay: Preemergence herbicidal evaluation, ORYSAT; assay type: in vivo, Oryza sativa, (L.); details: preemergence
# In short: as §2
# ZEAMX Corn, Field [24] = assay: Preemergence herbicidal evaluation, ZEAMX; assay type: in vivo, Zea mays, L. (Sammel-Bezeichnung); details: preemergence
# In short: as §2
compound,measurement,setting,value
COC(=O)COc1ccc(-n2nnc3cc(F)c(-n4c(=O)cc(C(F)(F)F)n(C)c4=O)cc32)c(C)c1 [Example 39],Postemergence herbicidal rating ABUTH,ABUTH Velvetleaf [1]; 0.008 kg/ha,9.0
same,Postemergence herbicidal rating ABUTH,ABUTH Velvetleaf [1]; 0.016 kg/ha,9.0
same,Postemergence herbicidal rating ABUTH,ABUTH Velvetleaf [1]; 0.032 kg/ha,9.0
same,Postemergence herbicidal rating ABUTH,ABUTH Velvetleaf [1]; 0.062 kg/ha,9.0
same,Postemergence herbicidal rating AMBEL,"AMBEL Ragweed, Common [2]; 0.008 kg/ha",0.0
same,Postemergence herbicidal rating AMBEL,"AMBEL Ragweed, Common [2]; 0.016 kg/ha",0.0
same,Postemergence herbicidal rating AMBEL,"AMBEL Ragweed, Common [2]; 0.032 kg/ha",6.0
same,Postemergence herbicidal rating AMBEL,"AMBEL Ragweed, Common [2]; 0.062 kg/ha",7.0
same,Postemergence herbicidal rating CASOB,CASOB Sicklepod [3]; 0.008 kg/ha,0.0
same,Postemergence herbicidal rating CASOB,CASOB Sicklepod [3]; 0.016 kg/ha,0.0
same,Postemergence herbicidal rating CASOB,CASOB Sicklepod [3]; 0.032 kg/ha,0.0
same,Postemergence herbicidal rating CASOB,CASOB Sicklepod [3]; 0.062 kg/ha,2.0
same,Postemergence herbicidal rating CHEAL,[4]; 0.008 kg/ha,0.0
same,Postemergence herbicidal rating CHEAL,[4]; 0.016 kg/ha,2.0
same,Postemergence herbicidal rating CHEAL,[4]; 0.032 kg/ha,2.0
same,Postemergence herbicidal rating CHEAL,[4]; 0.062 kg/ha,7.0
same,Postemergence herbicidal rating ECHCG,ECHOG Barnyardgrass [5]; 0.008 kg/ha,0.0
same,Postemergence herbicidal rating ECHCG,ECHOG Barnyardgrass [5]; 0.016 kg/ha,0.0
same,Postemergence herbicidal rating ECHCG,ECHOG Barnyardgrass [5]; 0.032 kg/ha,0.0
same,Postemergence herbicidal rating ECHCG,ECHOG Barnyardgrass [5]; 0.062 kg/ha,3.0
same,Postemergence herbicidal rating GALAP,GALAP Galium [6]; 0.008 kg/ha,0.0
same,Postemergence herbicidal rating GALAP,GALAP Galium [6]; 0.016 kg/ha,0.0
same,Postemergence herbicidal rating GALAP,GALAP Galium [6]; 0.032 kg/ha,3.0
same,Postemergence herbicidal rating GALAP,GALAP Galium [6]; 0.062 kg/ha,3.0
same,Postemergence herbicidal rating IPOHE,[7]; 0.008 kg/ha,9.0
same,Postemergence herbicidal rating IPOHE,[7]; 0.016 kg/ha,8.0
same,Postemergence herbicidal rating IPOHE,[7]; 0.032 kg/ha,9.0
same,Postemergence herbicidal rating IPOHE,[7]; 0.062 kg/ha,9.0
same,Postemergence herbicidal rating SETVI,"SETVI Foxtail, Green [8]; 0.008 kg/ha",0.0
same,Postemergence herbicidal rating SETVI,"SETVI Foxtail, Green [8]; 0.016 kg/ha",0.0
same,Postemergence herbicidal rating SETVI,"SETVI Foxtail, Green [8]; 0.032 kg/ha",0.0
same,Postemergence herbicidal rating SETVI,"SETVI Foxtail, Green [8]; 0.062 kg/ha",2.0
same,Postemergence herbicidal rating GLXMAW,"GLXMAW Soybean, Williams [9]; 0.008 kg/ha",3.5
same,Postemergence herbicidal rating GLXMAW,"GLXMAW Soybean, Williams [9]; 0.016 kg/ha",3.5
same,Postemergence herbicidal rating GLXMAW,"GLXMAW Soybean, Williams [9]; 0.032 kg/ha",4.0
same,Postemergence herbicidal rating GLXMAW,"GLXMAW Soybean, Williams [9]; 0.062 kg/ha",5.0
same,Postemergence herbicidal rating TRZAWR,[10]; 0.008 kg/ha,2.5
same,Postemergence herbicidal rating TRZAWR,[10]; 0.016 kg/ha,3.0
same,Postemergence herbicidal rating TRZAWR,[10]; 0.032 kg/ha,3.5
same,Postemergence herbicidal rating TRZAWR,[10]; 0.062 kg/ha,5.5
same,Postemergence herbicidal rating ORYSAT,"ORYSAT Rice, Tebonnet [11]; 0.008 kg/ha",0.0
same,Postemergence herbicidal rating ORYSAT,"ORYSAT Rice, Tebonnet [11]; 0.016 kg/ha",0.5
same,Postemergence herbicidal rating ORYSAT,"ORYSAT Rice, Tebonnet [11]; 0.032 kg/ha",1.0
same,Postemergence herbicidal rating ORYSAT,"ORYSAT Rice, Tebonnet [11]; 0.062 kg/ha",4.0
same,Postemergence herbicidal rating ZEAMX,"ZEAMX Corn, Field [12]; 0.008 kg/ha",7.0
same,Postemergence herbicidal rating ZEAMX,"ZEAMX Corn, Field [12]; 0.016 kg/ha",7.5
same,Postemergence herbicidal rating ZEAMX,"ZEAMX Corn, Field [12]; 0.032 kg/ha",7.5
same,Postemergence herbicidal rating ZEAMX,"ZEAMX Corn, Field [12]; 0.062 kg/ha",7.5
same,ABUTH herbicidal rating,ABUTH Velvetleaf [13]; rate 0.016 kg/ha,0.0
same,ABUTH herbicidal rating,ABUTH Velvetleaf [13]; rate 0.032 kg/ha,5.0
same,ABUTH herbicidal rating,ABUTH Velvetleaf [13]; rate 0.062 kg/ha,9.0
same,ABUTH herbicidal rating,ABUTH Velvetleaf [13]; rate 0.125 kg/ha,9.0
same,AMBEL herbicidal rating,"AMBEL Ragweed, Common [14]; rate 0.016 kg/ha",0.0
same,AMBEL herbicidal rating,"AMBEL Ragweed, Common [14]; rate 0.032 kg/ha",0.0
same,AMBEL herbicidal rating,"AMBEL Ragweed, Common [14]; rate 0.062 kg/ha",0.0
same,AMBEL herbicidal rating,"AMBEL Ragweed, Common [14]; rate 0.125 kg/ha",0.0
same,CASOB herbicidal rating,CASOB Sicklepod [15]; rate 0.016 kg/ha,0.0
same,CASOB herbicidal rating,CASOB Sicklepod [15]; rate 0.032 kg/ha,0.0
same,CASOB herbicidal rating,CASOB Sicklepod [15]; rate 0.062 kg/ha,0.0
same,CASOB herbicidal rating,CASOB Sicklepod [15]; rate 0.125 kg/ha,0.0
same,CHEAL herbicidal rating,[16]; rate 0.016 kg/ha,3.0
same,CHEAL herbicidal rating,[16]; rate 0.032 kg/ha,3.0
same,CHEAL herbicidal rating,[16]; rate 0.062 kg/ha,9.0
same,CHEAL herbicidal rating,[16]; rate 0.125 kg/ha,9.0
same,ECHCG herbicidal rating,ECHOG Barnyardgrass [17]; rate 0.016 kg/ha,0.0
same,ECHCG herbicidal rating,ECHOG Barnyardgrass [17]; rate 0.032 kg/ha,0.0
same,ECHCG herbicidal rating,ECHOG Barnyardgrass [17]; rate 0.062 kg/ha,0.0
same,ECHCG herbicidal rating,ECHOG Barnyardgrass [17]; rate 0.125 kg/ha,0.0
same,GALAP herbicidal rating,GALAP Galium [18]; rate 0.016 kg/ha,0.0
same,GALAP herbicidal rating,GALAP Galium [18]; rate 0.032 kg/ha,0.0
same,GALAP herbicidal rating,GALAP Galium [18]; rate 0.062 kg/ha,0.0
same,GALAP herbicidal rating,GALAP Galium [18]; rate 0.125 kg/ha,7.0
same,IPOHE herbicidal rating,[19]; rate 0.016 kg/ha,0.0
same,IPOHE herbicidal rating,[19]; rate 0.032 kg/ha,0.0
same,IPOHE herbicidal rating,[19]; rate 0.062 kg/ha,0.0
same,IPOHE herbicidal rating,[19]; rate 0.125 kg/ha,3.0
same,SETVI herbicidal rating,"SETVI Foxtail, Green [20]; rate 0.016 kg/ha",0.0
same,SETVI herbicidal rating,"SETVI Foxtail, Green [20]; rate 0.032 kg/ha",0.0
same,SETVI herbicidal rating,"SETVI Foxtail, Green [20]; rate 0.062 kg/ha",0.0
same,SETVI herbicidal rating,"SETVI Foxtail, Green [20]; rate 0.125 kg/ha",4.0
same,GLXMAW herbicidal rating,"GLXMAW Soybean, Williams [21]; rate 0.016 kg/ha",0.0
same,GLXMAW herbicidal rating,"GLXMAW Soybean, Williams [21]; rate 0.032 kg/ha",0.0
same,GLXMAW herbicidal rating,"GLXMAW Soybean, Williams [21]; rate 0.062 kg/ha",0.0
same,GLXMAW herbicidal rating,"GLXMAW Soybean, Williams [21]; rate 0.125 kg/ha",0.0
same,TRZAWR herbicidal rating,[22]; rate 0.016 kg/ha,0.0
same,TRZAWR herbicidal rating,[22]; rate 0.032 kg/ha,0.0
same,TRZAWR herbicidal rating,[22]; rate 0.062 kg/ha,0.0
same,TRZAWR herbicidal rating,[22]; rate 0.125 kg/ha,0.0
same,ORYSAT herbicidal rating,"ORYSAT Rice, Tebonnet [23]; rate 0.016 kg/ha",0.0
same,ORYSAT herbicidal rating,"ORYSAT Rice, Tebonnet [23]; rate 0.032 kg/ha",0.0
same,ORYSAT herbicidal rating,"ORYSAT Rice, Tebonnet [23]; rate 0.062 kg/ha",0.0
same,ORYSAT herbicidal rating,"ORYSAT Rice, Tebonnet [23]; rate 0.125 kg/ha",3.0
same,ZEAMX herbicidal rating,"ZEAMX Corn, Field [24]; rate 0.016 kg/ha",0.0
same,ZEAMX herbicidal rating,"ZEAMX Corn, Field [24]; rate 0.032 kg/ha",0.0
same,ZEAMX herbicidal rating,"ZEAMX Corn, Field [24]; rate 0.062 kg/ha",0.0
same,ZEAMX herbicidal rating,"ZEAMX Corn, Field [24]; rate 0.125 kg/ha",0.0
